PubChem BioAssay (NCI)
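Grown in 96-well plates, cells were treated for 48 hours with each compound at five concentrations. Insufficient inhibition: endpoint recorded as highest concentration tested. At the GI50, growth is halved. TGI: concentration producing complete growth inhibition.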

Columns and labels:
Test in all cases: DTP human tumour cell line panel, 48 h
SK-MEL-5 melanoma = system: SK-MEL-5 melanoma
SNB-19 CNS = system: SNB-19 CNS
T-47D breast = system: T-47D breast
TK-10 renal = system: TK-10 renal
BT-549 breast = system: BT-549 breast
LOX IMVI melanoma = system: LOX IMVI melanoma
OVCAR-4 ovarian = system: OVCAR-4 ovarian
HCT-116 colon = system: HCT-116 colon
HOP-62 NSCLC = system: HOP-62 NSCLC
SK-OV-3 ovarian = system: SK-OV-3 ovarian

SMILES | TGI (SK-MEL-5 melanoma) [µM] | TGI (SNB-19 CNS) [µM] | TGI (T-47D breast) [µM] | TGI (TK-10 renal) [µM] | TGI (BT-549 breast) [µM] | TGI (LOX IMVI melanoma) [µM] | TGI (OVCAR-4 ovarian) [µM] | TGI (HCT-116 colon) [µM] | TGI (HOP-62 NSCLC) [µM] | TGI (SK-OV-3 ovarian) [µM] | GI50 (SK-MEL-5 melanoma) [µM] | GI50 (SNB-19 CNS) [µM] | GI50 (LOX IMVI melanoma) [µM]
N#CC1=CNc2sccc2S1(=O)=O | > 100 | > 100 | > 100 | > 100 | > 100 | > 100 | > 100 | > 100 | > 100 | > 100 |  |  | 
O=C1NC(N/N=C\c2ccccc2)=N/C1=C/c1ccc(Cl)cc1 | 43.9 | 35.9 | > 100 | > 100 | 49.5 | 67.9 | 31.4 | 71.4 | 42 | 43.4 |  |  | 
OC1OC(c2ccco2)C(F)(F)C(F)(F)C1(F)F (stereo not drawn) | 89.1 | > 100 | > 100 | > 100 | > 100 | > 100 | > 100 | > 100 | > 100 | > 100 |  |  | 
N#CCc1nc(C#N)c(N)o1 | > 100 | > 100 | > 100 | > 100 | > 100 | > 100 | > 100 | > 100 | > 100 | > 100 | > 100 | > 100 | > 100
CCOC(=O)c1c(N2CCOCC2)[nH]c(=O)c(C(c2ccc(OC)cc2)c2c(O)c(C(=O)OCC)c(N3CCOCC3)[nH]c2=O)c1O | > 100 | > 100 | > 100 | > 100 | > 100 | > 100 | > 100 | > 100 | > 100 | > 100 |  |  | 
NC(N)=N/N=C/c1nc2sccn2c1[N+](=O)[O-] | 33.9 | > 100 | 65.1 | > 100 | > 100 | 56.1 | 33.6 | 59.6 | > 100 | > 100 |  |  | 
CCOC(=O)C(O)(NC(C)=O)C(F)(F)F (stereo not drawn) | > 100 | > 100 | > 100 | > 100 | > 100 | > 100 | > 100 | > 100 | > 100 | > 100 |  |  | 
O=C1OS2(OCc3cccc4cccc2c34)c2ccccc21 (stereo not drawn) | > 100 | > 100 | > 100 | > 100 | > 100 | > 100 | > 100 | > 100 | > 100 | > 100 |  |  | 
CSC(=NC1=NC(C(F)(F)F)(C(F)(F)F)N=C(c2ccccc2)O1)SC | 33.1 | > 100 | 24.2 | > 100 | 82.4 | 42.8 | 59.1 | 16.3 | 59 | > 100 |  |  | 
N#CCCN(CCCN(C(=O)Nc1ccccc1)c1ccccc1)C(=O)Nc1ccccc1 | > 100 | > 100 | > 100 | > 100 | > 100 | > 100 | > 100 | > 100 | > 100 | > 100 |  |  | 
Cc1ccc(S(=O)(=O)N2CCN(CCN(C)CCN3CCN(S(=O)(=O)c4ccc(C)cc4)CC3)CC2)cc1 | 32.3 | 69.4 | 48 | 30.2 | 30.6 | 33 | 43.7 | 35 | 33 | 33.3 |  |  | 
CC1(C)[C@@H]2C[C@H]1c1cnc(-c3ccccn3)cc1C2[C@@H]1c2cc(-c3ccccn3)ncc2[C@@H]2C[C@H]1C2(C)C (stereo partly drawn) | > 100 | > 100 | > 100 | 75.1 | > 100 | > 100 | 85.3 | > 100 | > 100 | > 100 |  |  | 
